Key:
Vero cells = experiment: Vero cell viability, MTT test, 72 h; assay type: cell-based, African green monkey; settings: MTT; for Viability % ±s.d.: +F127 (Pluronic F-127), Vero, 3 days
Description: Before testing antiviral activity, the effect of porphyrins dissolved in PBS and Pluronic F-127 on the viability of Vero cells was evaluated. Cells were incubated for 72 h using different concentrations of porphyrins (0.39–100 μM). Viability was assessed using the MTT test (Figure S13, Table S1, Supplementary Information). The viability of Vero cells depends on the porphyrins’ structure and formulation.
Cell viability was assessed by MTT reduction assay. Briefly, confluent monolayer Vero cells in 96-well plates (15000 cells/well) were incubated for 72 h with different concentrations of the compounds ranging from 0.39 µM to 100 µM in DMEM-1% FCS at 36.8 °C in 5% CO2 atmosphere. Next, cells were incubated for 1 h with 1.0 mg/mL of 3-(4,5-dimethylthiazol-2-y1)-2,5-diphenyltetrazolium bromide (MTT, PanEco, Moscow, Russia) at 36.8 °C, and then the solution was removed, and precipitated formazan was diluted in DMSO (PanEco, Moscow, Russia). The solution was read on a spectrophotometer at 540 nm. For each concentration, the average cell viability was calculated from the data of three experiments with three replicates each and was expressed as a percentage compared to the untreated cells (100%).
Table s1. Vero cell viability after exposure to 3a, 3b, TMEPyP compounds dissolved in PBS and Pluronic F-127. Different concen-
trations of compounds were applied to the cell monolayer and after incubation for 3 days, the number of living cells was calculated
in the MTT test. Each point represents the mean ± standard deviation of three experiments with […] each. n.d. –not done.
Compound Concentration, µM/L Viability % ±s.d.

[1] = Micelle size of Pluronic F-127 formulations by dynamic light scattering; assay type: physicochemical; settings: Pluronic F-127 micelles, concentration 3·10^−6 M
Description: The size of obtained micelles for the compounds 3a,b was determined by the dynamic light scattering (DLS) method. The micelle size for compounds 3a,b was 17.53 nm and 14.69 nm, respectively, at concentrations of 3·10^−6 M (Figure 4a,b). It has previously been reported that a similar micelle size increased the efficiency and circulation of the encapsulated drug in the blood due to the small scale, which avoided the capture of nanoparticles by the reticular endothelial system.
NMR (^1H and ^13C) spectra of the test solutions in CDCl3 or (CD3OD) were recorded on a Bruker MSL-300 pulse Fourier transform spectrometer (Bruker, Billerica, MA, USA) at frequencies of 300.3 and 75.49 MHz, respectively, with internal deuterium stabilization. Tetramethylsilane was used as an external standard. IR spectra (4000–500 cm^–1) were recorded on Infralyum FT 02 Fourier spectrometer (Lumex Instruments Research and Production Company, Moscow, Russia) with a resolution of 1 cm^−1. Samples were prepared as KBr tablets. Dynamic light scattering was measured using Malvern Zetasizer Nano ZS (Malvern, United Kingdom). […] Mass spectra were recorded using an 1100 LCMSD liquid chromatograph (Agilent Technologies, Santa Clara, CA, USA) equipped with a mass spectrometric chemical ionization detector at atmospheric pressure (HIAD, APCI, ESI) and with a UV spectrophotometric detector (DAD). […]

O=C(CCCCC[n+]1ccccc1)Oc1ccc(-c2c3nc(c(-c4ccc(OC(=O)CCCCC[n+]5ccccc5)cc4)c4ccc([nH]4)c(-c4ccc(OC(=O)CCCCC[n+]5ccccc5)cc4)c4nc(c(-c5ccc(OC(=O)CCCCC[n+]6ccccc6)cc5)c5ccc2[nH]5)C=C4)C=C3)cc1 [3b, 5,10,15,20-tetrakis(4-(6-pyridyl-n-hexanoyl)oxyphenyl)porphyrin tetrabromide]
Viability % ±s.d. (Vero cells; 0.39 µM/L): 97.6±6.9%
Viability % ±s.d. (Vero cells; 0.78 µM/L): 81.3±10.8%
Viability % ±s.d. (Vero cells; 1.56 µM/L): 82.7±19.5%
Viability % ±s.d. (Vero cells; 3.13 µM/L): 79.6±9.6%
Viability % ±s.d. (Vero cells; 6.25 µM/L): 63.4±8.1%
Viability % ±s.d. (Vero cells; 12.50 µM/L): 67.7±11.5%
Viability % ±s.d. (Vero cells; 25 µM/L): 58.4±4.4%
Viability % ±s.d. (Vero cells; 50 µM/L): 41.3±2.7%
Viability % ±s.d. (Vero cells; 100 µM/L): 25.0±1.9%
CC50 (Vero cells; Pluronic F-127 (F127) micellar formulation, Vero cells, 72 h): 27 µM
micelle size (DLS) [1]: 14.69 nm

Source: article PMC7999199, “Novel Cationic Meso-Arylporphyrins and Their Antiviral Activity against HSV-1” (Pharmaceuticals, 2021)
